Values joined by “and” are separate entries in the source; they are usually repeats but may differ in a detail not shown here. Identical values can stand only once. Active and inactive are the calls of the source. The rule behind the calls is not given here.
Key:
[1] = Clearance in Albino Wistar rat at 15 mg/kg, iv administered as pluronic F127 formulation measured upto 72 hrs by high-performance liquid chromatography tandem mass spectrometric analysis; assay type: ADME, organism-based; details: in vivo
CWR22R [2] = experiment: Antitumor activity against human 22Rv1 cells xenografted in Balb/c nude mouse assessed as tumor growth inhibition at 20 mg/kg, ip administered once in two days for three times and measured 7 days after the end of treatment relative to control; assay type: functional; details: 22Rv1, 312 h, time 13 day, read-out: TGI
PC-3 = experiment: Effect on cell stiffness in human PC-3 cells assessed as increase in young's modulus at 2.8 nM measured after 1 hr by topography based scanning ion-conductance microscopic analysis; assay type: functional
[3] = Chronic toxicity in rat assessed as change in alkaline phosphatase level at 18.75 to 22.5 mg/kg, iv administered as pluronic F127 formulation at 4 intervals for 21 days and observed 3 weeks post last injection; assay type: organism-based; details: in vivo, 2544 h, dose 18.75-22.5 mg/kg, time 106 day
[4] = Subchronic toxicity in Wistar rat assessed as decrease in body weight at 58 mg/kg, iv administered as pluronic F127 formulation daily for 28 days; assay type: organism-based; details: in vivo, 672 h, time 28 day
[5] = Acute toxicity in Wistar rat assessed as violation of motor activity in hind limb administered intravenously as pluronic F127 formulation and measured for 14 days; details: in vivo, iv, 336 h, dose 15-279 mg/kg, time 14 day
[6] = Chronic toxicity in Soviet Chinchilla rabbit assessed as animal death administered intravenously as pluronic F127 formulation at 4 intervals for 21 days and observed 3 weeks post last injection; design: species or system Oryctolagus cuniculus; details: in vivo, iv, 2544 h, time 106 day
CWR22R [7] = experiment: Antitumor activity against human 22Rv1 cells xenografted in Balb/c nude mouse assessed as tumor growth inhibition at 20 mg/kg, ip administered once in two days for three times and measured 1 day after the end of treatment relative to control; assay type: functional; details: 22Rv1, 168 h, time 7 day, read-out: TGI
[8] = Acute toxicity in Wistar rat assessed as lethal dose administered intravenously as pluronic F127 formulation and measured for 14 days; details: in vivo, route iv, time 14 day
[9] = Chronic toxicity in rat assessed as neurological disorder at 22.5 mg/kg, iv administered as pluronic F127 formulation at 4 intervals for 21 days and observed 3 weeks post last injection; assay type: organism-based; details: in vivo, 2544 h, time 106 day
[10] = Half-life in Soviet Chinchilla rabbit at 8.1 mg/kg, iv administered as pluronic F127 formulation measured upto 72 hrs by high-performance liquid chromatography tandem mass spectrometric analysis; assay type: ADME, organism-based, Oryctolagus cuniculus; details: in vivo
[11] = Chronic toxicity in rat assessed as decrease in relative mass of testes administered intravenously as pluronic F127 formulation at 4 intervals for 21 days and observed 3 weeks post last injection relative to control; details: in vivo, iv, 2544 h, time 106 day
CWR22R [12] = experiment: Antitumor activity against human 22Rv1 cells xenografted in Balb/c nude mouse assessed as tumor growth inhibition at 10 mg/kg, ip administered once in two days for three times and measured 1 day after the end of treatment relative to control; assay type: functional; details: 22Rv1, 168 h, time 7 day, read-out: TGI
[13] = Chronic toxicity in Soviet Chinchilla rabbit assessed as increase in body weight at 12.21 mg/kg, iv administered as pluronic F127 formulation at 4 intervals for 21 days and observed 3 weeks post last injection relative to control; assay type: organism-based, Oryctolagus cuniculus; details: in vivo, 2544 h, time 106 day
[14] = Chronic toxicity in Soviet Chinchilla rabbit assessed as decrease in body weight at 8.14 mg/kg, iv administered as pluronic F127 formulation at 4 intervals for 21 days and observed 3 weeks post last injection; assay type: organism-based, Oryctolagus cuniculus; details: in vivo, 2544 h, time 106 day
[15] = Toxicity in Balb/c nude mouse xenografted with human 22Rv1 cells assessed as animal death at 30 mg/kg, ip measured upto 30 days; assay type: organism-based, CWR22R; details: in vivo, 720 h, time < 30 day
[16] = Chronic toxicity in rat assessed as increase in relative mass of stomach administered intravenously as pluronic F127 formulation at 4 intervals for 21 days and observed 3 weeks post last injection relative to control; assay type: tissue-based; details: in vivo, iv, 2544 h, time 106 day
[17] = Acute toxicity in Wistar rat assessed as coprostasis at 15 to 279 mg/kg, iv administered as pluronic F127 formulation and measured for 14 days; assay type: organism-based; details: in vivo, 336 h, dose 15-279 mg/kg, time 14 day
DU-145 [18] = experiment: Antitumor activity against human DU-145 cells xenografted in BALB/c nude mouse assessed as tumor growth inhibition at 30 mg/kg, ip measured upto 30 days; assay type: functional; details: DU-145, 720 h, time <= 30 day, read-out: TGI
[19] = Acute toxicity in Wistar rat assessed as animal death at 15 to 279 mg/kg, iv administered for 14 days as pluronic F127 formulation and measured after 3 days; assay type: organism-based; details: in vivo, 408 h, dose 15-279 mg/kg, time 17 day
[20] = Acute toxicity in ICR mouse assessed as maximum tolerated dose administered intravenously as pluronic F127 formulation and measured for 14 days; details: in vivo, route iv, time 14 day
[21] = Acute toxicity in ICR mouse assessed as hypertrophied adrenal gland at 183 to 960 mg/kg, iv administered as pluronic F127 formulation and measured for 14 days; assay type: organism-based; details: in vivo, 336 h, dose 183-960 mg/kg, time 14 day
[22] = Chronic toxicity in rat assessed as change in volume of excreted urine at 18.75 to 22.5 mg/kg, iv administered as pluronic F127 formulation at 4 intervals for 21 days and observed 3 weeks post last injection; assay type: organism-based; details: in vivo, 2544 h, dose 18.75-22.5 mg/kg, time 106 day
[23] = Chronic toxicity in rat assessed as reduction in standing up at 22.5 mg/kg, iv administered as pluronic F127 formulation at 4 intervals for 21 days and observed 3 weeks post last injection; assay type: organism-based; details: in vivo, 2544 h, time 106 day
[24] = Chronic toxicity in Soviet Chinchilla rabbit assessed as decrease in body weight at 10.17 mg/kg, iv administered as pluronic F127 formulation at 4 intervals for 21 days and observed upto day 49; assay type: organism-based, Oryctolagus cuniculus; details: in vivo, 1176 h, time < 49 day
[25] = Chronic toxicity in rat assessed as increase in relative lung mass administered intravenously as pluronic F127 formulation for 4 intervals of 21 days and observed 3 weeks post last injection relative to control; details: in vivo, iv, 2544 h, time 106 day
[26] = C0 in Albino Wistar rat at 15 mg/kg, iv administered as pluronic F127 formulation measured upto 72 hrs by high-performance liquid chromatography tandem mass spectrometric analysis; assay type: ADME, organism-based; details: in vivo
[27] = Chronic toxicity in Soviet Chinchilla rabbit assessed as increase in relative pancreas mass at 8.14 to 12.21 mg/kg, iv administered as pluronic F127 formulation at 4 intervals for 21 days and observed 3 weeks post last injection; assay type: organism-based, Oryctolagus cuniculus; details: in vivo, 2544 h, dose 8.14-12.21 mg/kg, time 106 day
DU-145 [28] = experiment: Antitumor activity against human DU-145 cells xenografted in BALB/c nude mouse assessed as reduction in tumor growth index at 60 mg/kg, ip measured upto 30 days (reference value: 1110.1 +/- 136.7 %); assay type: functional; design: scale not given: the % may be the effect or the level left; details: time <= 30 day
[29] = Volume of distribution in Albino Wistar rat at 15 mg/kg, iv administered as pluronic F127 formulation measured upto 72 hrs by high-performance liquid chromatography tandem mass spectrometric analysis; assay type: ADME, organism-based; details: in vivo
[30] = Subchronic toxicity in Wistar rat assessed as tolerance at 58 mg/kg, iv administered as pluronic F127 formulation daily for 28 days; assay type: organism-based; details: in vivo, 672 h, time 28 day

## CC(=O)O[C@@]12CO[C@@H]1C[C@H](O)[C@@]1(C)C(=O)[C@H](O)C3=C(C)[C@@H](OC(=O)[C@H](OC(=O)CCCc4cn(CCCNC(=O)[C@H](Cc5ccc(O)cc5)NC(=O)[C@H](Cc5ccccc5)NC(=O)CCC(=O)NCCCCCC(=O)N(CCCC[C@H](NC(=O)N[C@@H](CCC(=O)O)C(=O)O)C(=O)O)Cc5cccc(Cl)c5)nn4)[C@@H](NC(=O)OC(C)(C)C)c4ccccc4)C[C@@](O)([C@@H](OC(=O)c4ccccc4)[C@H]21)C3(C)C
[1]
  clearance: 9.15 mL/min/kg
CWR22R [2]
  inhibition in vivo at 20 mg/kg: 85%
PC-3
  Activity: Active
[3]
  Activity: Non-Toxic
[4]
  Activity: Toxic
[5]
  Activity: Toxic
[6]
  Activity: Non-Toxic
CWR22R [7]
  inhibition in vivo at 20 mg/kg: 78%
[8]
  LD50 at 336 h: 58 mg/kg and 30 µmol/kg
[9]
  Activity: Toxic
[10]
  half-life: 8.1 h
[11]
  Activity: Toxic
CWR22R [12]
  inhibition in vivo at 10 mg/kg: 84%
[13]
  Activity: Toxic
[14]
  Activity: Toxic
[15]
  Activity: Toxic
[16]
  Activity: Toxic
[17]
  Activity: Toxic
DU-145 [18]
  inhibition in vivo at 30 mg/kg: 81.7%
[19]
  Activity: Toxic
[20]
  MTD at 336 h: 183 mg/kg
[21]
  Activity: Toxic
[22]
  Activity: Toxic
[23]
  Activity: Toxic
[24]
  Activity: Toxic
[25]
  Activity: Toxic
[26]
  C0 at 72 h: 153 µg/mL
[27]
  Activity: Toxic
DU-145 [28]
  Activity: 150.9%
[29]
  Vd: 0.631 L/kg
[30]
  Activity: Toxic
